Columns and labels:
foxtail, giant [1] = test: Test C postemergence; format: in vivo, Setaria faberii
Excerpt: (§1) Seeds of plant species selected from blackgrass (Alopecurus myosuroides), ryegrass, Italian (Italian ryegrass, Lolium multiflorum), wheat (winter wheat, Triticum aestivum), galium (catchweed bedstraw, Galium aparine), corn (Zea mays), crabgrass, large (large crabgrass, Digitaria sanguinalis), foxtail, giant, (giant foxtail, Setaria faberii), johnsongrass (Sorghum halepense), lambsquarters (Chenopodium album), morningglory (Ipomoea coccinea), nutsedge, yellow (yellow nutsedge, Cyperus esculentus), pigweed (Amaranthus retroflexus), ragweed (common ragweed, Ambrosia elatior), soybean (Glycine max), barnyardgrass (Echinochloa crus-galli), oilseed rape (Brassica napus), waterhemp (common waterhemp, Amaranthus rudis), and velvetleaf (Abutilon theophrasti) were planted into a blend of loam soil and sand and treated preemergence with test chemicals formulated in a non-phytotoxic solvent mixture which included a surfactant. At the same time, plants selected from these crop and weed species and also chickweed (common chickweed, Stellaria media), oat, wild (wild oat, Avena fatua), and kochia (Kochia scoparia), were planted in pots containing Sunshine Redi-Earth® planting medium comprising spaghnum peat moss, vermiculite, starter nutrients and dolomitic limestone and treated with postemergence applications of test chemicals formulated in the same manner. Plants ranged in height from 2 to 18 cm (1- to 4-leaf stage) for postemergence treatments. […] A dash (-) response means no test result.

johnsongrass = test: Test C postemergence; format: in vivo, Sorghum halepense
Excerpt: as §1

velvetleaf = test: Test C postemergence; format: in vivo, Abutilon theophrasti
Excerpt: as §1

wheat = test: Test A postemergence; format: in vivo, Triticum aestivum; conditions: Triticum aestivum, post-emergence, 240 h, 0 to 100 scale (0 no effect, 100 complete control), approx. 10 d, read-out: Plant response rating, Wheat; for plant injury at 125 g/ha: 125 g ai/ha; for plant injury at 500 g/ha: 500 g ai/ha
In short: (§2)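 For preemergence, seeds were sown in a loam soil-sand blend and given a directed soil spray of test chemical in a non-phytotoxic solvent mixture with surfactant. For postemergence, plants in pots of the same blend were sprayed with the same formulation at the one- to two-leaf stage, 2 to 10 cm tall.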

barnyardgrass [2] = test: Test A preemergence; format: in vivo, Echinochloa crus-galli; conditions: Echinochloa crus-galli, pre-emergence, 240 h, 0 to 100 scale (0 no effect, 100 complete control), read-out: Plant response rating, Barnyardgrass; for pest or weed control at 125 g/ha: 125 g ai/ha; for pest or weed control at 500 g/ha: 500 g ai/ha, approx. 10 d
In short: as §2

pigweed [3] = test: Test A postemergence; format: in vivo, Amaranthus retroflexus; conditions: Amaranthus retroflexus, post-emergence, 240 h, 0 to 100 scale (0 no effect, 100 complete control), approx. 10 d, read-out: Plant response rating, Pigweed; for pest or weed control at 125 g/ha: 125 g ai/ha; for pest or weed control at 500 g/ha: 500 g ai/ha
In short: as §2

barnyardgrass [4] = test: Test B flooded paddy test; format: in vivo, Echinochloa crus-galli; conditions: Echinochloa crus-galli, 360 h, 125 g ai/ha, applied to paddy water at 2-leaf stage, visual rating after 13 to 15 d, scale 0 (no effect) to 100 (complete control), read-out: Plant response rating, Barnyardgrass, Flood
In short: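 Pots were flooded to 3 cm above the soil at treatment, and compounds were applied directly into the paddy water. That depth was held throughout. After 13 to 15 d in a greenhouse, plants were rated visually against untreated controls.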

blackgrass = test: Test C postemergence; format: in vivo, Alopecurus myosuroides
Excerpt: as §1

foxtail, giant [5] = test: Test A postemergence; format: in vivo, Setaria faberii; conditions: Setaria faberi, post-emergence, 240 h, 0 to 100 scale (0 no effect, 100 complete control), approx. 10 d, read-out: Plant response rating, Foxtail, Giant; for pest or weed control at 125 g/ha: 125 g ai/ha; for pest or weed control at 500 g/ha: 500 g ai/ha
In short: as §2

waterhemp = test: Test C postemergence; format: in vivo, Amaranthus rudis
Excerpt: as §1

corn = test: Test C postemergence; format: in vivo, Zea mays
Excerpt: as §1

galium = test: Test C postemergence; format: in vivo, Galium aparine
Excerpt: as §1

barnyardgrass [6] = test: Test C postemergence; format: in vivo, Echinochloa crus-galli
Excerpt: as §1

ragweed = test: Test C postemergence; format: in vivo, Ambrosia elatior
Excerpt: as §1

kochia = test: Test C postemergence; format: in vivo, Kochia scoparia
Excerpt: as §1

pigweed [7] = test: Test C postemergence; format: in vivo, Amaranthus retroflexus
Excerpt: as §1

crabgrass, large = test: Test C postemergence; format: in vivo, Digitaria sanguinalis
Excerpt: as §1

lambsquarters = test: Test C postemergence; format: in vivo, Chenopodium album
Excerpt: as §1

oilseed rape = test: Test C postemergence; format: in vivo, Brassica napus
Excerpt: as §1

Question: What does the source list for `CCc1nc(-c2ccc(C(F)(F)F)cc2)nn1Cc1ccnc(C(F)(F)F)c1` [Compound 1, 4-[[5-ethyl-3-[4-(trifluoromethyl)phenyl]-1H-1,2,4-triazol-1-yl]methyl]-2-(trifluoromethyl)pyridine]?
Answer: Plant response rating (scale of 0 to 100 where 0 is no effect and 100 is complete control) (foxtail, giant [1]; 31 g ai/ha): 35; Plant response rating (scale of 0 to 100 where 0 is no effect and 100 is complete control) (foxtail, giant [1]; 62 g ai/ha): 35; Plant response rating (scale of 0 to 100 where 0 is no effect and 100 is complete control) (foxtail, giant [1]; 125 g ai/ha): 55; Plant response rating (scale of 0 to 100 where 0 is no effect and 100 is complete control) (foxtail, giant [1]; 250 g ai/ha): 55; Plant response rating (scale of 0 to 100 where 0 is no effect and 100 is complete control) (johnsongrass; 31 g ai/ha): 10; Plant response rating (scale of 0 to 100 where 0 is no effect and 100 is complete control) (johnsongrass; 62 g ai/ha): 10; Plant response rating (scale of 0 to 100 where 0 is no effect and 100 is complete control) (johnsongrass; 125 g ai/ha): 15; Plant response rating (scale of 0 to 100 where 0 is no effect and 100 is complete control) (johnsongrass; 250 g ai/ha): 20; Plant response rating (scale of 0 to 100 where 0 is no effect and 100 is complete control) (velvetleaf; 31 g ai/ha): 40; Plant response rating (scale of 0 to 100 where 0 is no effect and 100 is complete control) (velvetleaf; 62 g ai/ha): 55; Plant response rating (scale of 0 to 100 where 0 is no effect and 100 is complete control) (velvetleaf; 125 g ai/ha): 60; Plant response rating (scale of 0 to 100 where 0 is no effect and 100 is complete control) (velvetleaf; 250 g ai/ha): 75; plant injury at 125 g/ha (wheat): 30%; plant injury at 500 g/ha (wheat): 60%; pest or weed control at 125 g/ha (barnyardgrass [2]): 80%; pest or weed control at 500 g/ha (barnyardgrass [2]): 90%; pest or weed control at 125 g/ha (pigweed [3]): 100%; pest or weed control at 500 g/ha (pigweed [3]): 100%; pest or weed control at 125 g/ha (barnyardgrass [4]): 40%; Plant response rating (scale of 0 to 100 where 0 is no effect and 100 is complete control) (blackgrass; 31 g ai/ha): 5; Plant response rating (scale of 0 to 100 where 0 is no effect and 100 is complete control) (blackgrass; 62 g ai/ha): 5; Plant response rating (scale of 0 to 100 where 0 is no effect and 100 is complete control) (blackgrass; 125 g ai/ha): 15; Plant response rating (scale of 0 to 100 where 0 is no effect and 100 is complete control) (blackgrass; 250 g ai/ha): 35; pest or weed control at 125 g/ha (foxtail, giant [5]): 90%; pest or weed control at 500 g/ha (foxtail, giant [5]): 100%; Plant response rating (scale of 0 to 100 where 0 is no effect and 100 is complete control) (waterhemp; 31 g ai/ha): 85; Plant response rating (scale of 0 to 100 where 0 is no effect and 100 is complete control) (waterhemp; 62 g ai/ha): 85; Plant response rating (scale of 0 to 100 where 0 is no effect and 100 is complete control) (waterhemp; 125 g ai/ha): 90; Plant response rating (scale of 0 to 100 where 0 is no effect and 100 is complete control) (waterhemp; 250 g ai/ha): 90; Plant response rating (scale of 0 to 100 where 0 is no effect and 100 is complete control) (corn; 31 g ai/ha): 15; Plant response rating (scale of 0 to 100 where 0 is no effect and 100 is complete control) (corn; 62 g ai/ha): 15; Plant response rating (scale of 0 to 100 where 0 is no effect and 100 is complete control) (corn; 125 g ai/ha): 20; Plant response rating (scale of 0 to 100 where 0 is no effect and 100 is complete control) (corn; 250 g ai/ha): 20; Plant response rating (scale of 0 to 100 where 0 is no effect and 100 is complete control) (galium; 31 g ai/ha): 80; Plant response rating (scale of 0 to 100 where 0 is no effect and 100 is complete control) (galium; 62 g ai/ha): 80; Plant response rating (scale of 0 to 100 where 0 is no effect and 100 is complete control) (galium; 125 g ai/ha): 90; Plant response rating (scale of 0 to 100 where 0 is no effect and 100 is complete control) (galium; 250 g ai/ha): 90; Plant response rating (scale of 0 to 100 where 0 is no effect and 100 is complete control) (barnyardgrass [6]; 31 g ai/ha): 10; Plant response rating (scale of 0 to 100 where 0 is no effect and 100 is complete control) (barnyardgrass [6]; 62 g ai/ha): 15; Plant response rating (scale of 0 to 100 where 0 is no effect and 100 is complete control) (barnyardgrass [6]; 125 g ai/ha): 15; Plant response rating (scale of 0 to 100 where 0 is no effect and 100 is complete control) (barnyardgrass [6]; 250 g ai/ha): 50; Plant response rating (scale of 0 to 100 where 0 is no effect and 100 is complete control) (ragweed; 31 g ai/ha): 60; Plant response rating (scale of 0 to 100 where 0 is no effect and 100 is complete control) (ragweed; 62 g ai/ha): 70; Plant response rating (scale of 0 to 100 where 0 is no effect and 100 is complete control) (ragweed; 125 g ai/ha): 75; Plant response rating (scale of 0 to 100 where 0 is no effect and 100 is complete control) (ragweed; 250 g ai/ha): 80; Plant response rating (scale of 0 to 100 where 0 is no effect and 100 is complete control) (kochia; 31 g ai/ha): 85; Plant response rating (scale of 0 to 100 where 0 is no effect and 100 is complete control) (kochia; 62 g ai/ha): 85; Plant response rating (scale of 0 to 100 where 0 is no effect and 100 is complete control) (kochia; 125 g ai/ha): 90; Plant response rating (scale of 0 to 100 where 0 is no effect and 100 is complete control) (kochia; 250 g ai/ha): 90; Plant response rating (scale of 0 to 100 where 0 is no effect and 100 is complete control) (pigweed [7]; 31 g ai/ha): 50; Plant response rating (scale of 0 to 100 where 0 is no effect and 100 is complete control) (pigweed [7]; 62 g ai/ha): 98; Plant response rating (scale of 0 to 100 where 0 is no effect and 100 is complete control) (pigweed [7]; 125 g ai/ha): 98; Plant response rating (scale of 0 to 100 where 0 is no effect and 100 is complete control) (pigweed [7]; 250 g ai/ha): 100; Plant response rating (scale of 0 to 100 where 0 is no effect and 100 is complete control) (crabgrass, large; 31 g ai/ha): 5; Plant response rating (scale of 0 to 100 where 0 is no effect and 100 is complete control) (crabgrass, large; 62 g ai/ha): 5; Plant response rating (scale of 0 to 100 where 0 is no effect and 100 is complete control) (crabgrass, large; 125 g ai/ha): 45; Plant response rating (scale of 0 to 100 where 0 is no effect and 100 is complete control) (crabgrass, large; 250 g ai/ha): 45; Plant response rating (scale of 0 to 100 where 0 is no effect and 100 is complete control) (lambsquarters; 31 g ai/ha): 70; Plant response rating (scale of 0 to 100 where 0 is no effect and 100 is complete control) (lambsquarters; 62 g ai/ha): 70; Plant response rating (scale of 0 to 100 where 0 is no effect and 100 is complete control) (lambsquarters; 125 g ai/ha): 75; Plant response rating (scale of 0 to 100 where 0 is no effect and 100 is complete control) (lambsquarters; 250 g ai/ha): 80; Plant response rating (scale of 0 to 100 where 0 is no effect and 100 is complete control) (oilseed rape; Oilsee Rape, 250 g ai/ha): 90; Plant response rating (scale of 0 to 100 where 0 is no effect and 100 is complete control) (oilseed rape; Oilseed Rape, 31 g ai/ha): 50; Plant response rating (scale of 0 to 100 where 0 is no effect and 100 is complete control) (oilseed rape; Oilseed Rape, 62 g ai/ha): 70; Plant response rating (scale of 0 to 100 where 0 is no effect and 100 is complete control) (oilseed rape; Oilseed Rape, 125 g ai/ha): 80

Question: How did the plant injury at 125 g/ha (wheat) turn out when `CCCn1nc(-c2ccc(F)cc2)nc1Cc1ccnc(C(F)(F)F)c1` [Compound 17, 4-[[3-(4-fluorophenyl)-1-propyl-1H-1,2,4-triazol-5-yl]methyl]-2-(trifluoromethyl)pyridine] was run?
Answer: 60%

Question: And the plant injury at 500 g/ha (wheat)?
Answer: 80%

Question: And the pest or weed control at 125 g/ha (barnyardgrass [2])?
Answer: 50%

Question: What about the pest or weed control at 500 g/ha (barnyardgrass [2]) of the same molecule?
Answer: 100%

Question: And the pest or weed control at 125 g/ha (pigweed [3])?
Answer: 100%

Question: What about the pest or weed control at 500 g/ha (pigweed [3]) of the same molecule?
Answer: 100%

Question: And the pest or weed control at 125 g/ha (barnyardgrass [4])?
Answer: 10%

Question: And the pest or weed control at 125 g/ha (foxtail, giant [5])?
Answer: 90%

Question: What about the pest or weed control at 500 g/ha (foxtail, giant [5]) of the same molecule?
Answer: 90%

Source: patent publication US10681909B2, “Herbicidal triazoles” (FMC Corporation, priority 2014, dated 2020)
